Experimental data from ChEMBL document CHEMBL1122322, “Synthesis and antileishmanial activity of 6-methoxy-4-methyl-N-[6-(substituted-1-piperazinyl)hexyl]-8-quinolinamines and related compounds” (1983).
Active and inactive are the calls of the source. The rule behind the calls is not given here.

Assays:
Leishmania donovani [1] = assay: (§1) Antileishmanial activity against Leishmania donovani infections in hamsters (208 mg/kg); assay type: functional
Leishmania donovani [2] = assay: Glucantime (meglumine antimoniate) index (G index) against Leishmania donovani infections in hamsters.; assay type: functional
Leishmania donovani [3] = assay: Antileishmanial activity against Leishmania donovani infections in hamsters (0.81 mg/kg); assay type: functional
Leishmania donovani [4] = assay: Antileishmanial activity against Leishmania donovani infections in hamsters (at 13 mg/kg).; assay type: functional
Leishmania donovani [5] = assay: Antileishmanial activity against Leishmania donovani infections in hamsters (3.25 mg/kg); assay type: functional
Leishmania donovani [6] = assay: Antileishmanial activity against Leishmania donovani infections in hamsters (at 52 mg/kg).; assay type: functional
Leishmania donovani [7] = assay: Antileishmanial activity against Leishmania donovani infections in hamsters (0.2 mg/kg); assay type: functional
Leishmania donovani [8] = assay: as §1; assay type: functional, organism-based
Leishmania donovani [9] = assay: Antileishmanial activity against Leishmania donovani infections in hamsters (208 mg/kg): Inactive; assay type: functional, organism-based
Leishmania donovani [10] = assay: Antileishmanial activity against Leishmania donovani infections in hamsters (3.25 mg/kg); NA means inactive; assay type: functional, organism-based
Leishmania donovani [11] = assay: Antileishmanial activity against Leishmania donovani infections in hamsters (104 mg/kg); assay type: functional, organism-based
Leishmania donovani [12] = assay: Antileishmanial activity against Leishmania donovani infections in hamsters (0.05 mg/kg); assay type: functional

Molecule | G index (Leishmania donovani [2]) | Suppression (Leishmania donovani [3]) [%] | Suppression (Leishmania donovani [4]) [%] | Suppression (Leishmania donovani [5]) [%] | Suppression (Leishmania donovani [6]) [%] | Suppression (Leishmania donovani [8]) | other results
COc1cc(NCCCCCCN2CCN(c3ccc(Cl)c(Cl)c3)CC2)c2nccc(C)c2c1 | <1 |  |  |  |  |  | Suppression (Leishmania donovani [1]): 77.8%
COc1cc(NCCCCCCN2CCN(C)CC2)c2nccc(C)c2c1.Cl | 26 | 64.7 | 99.7 | 99.3 | 100 |  | Suppression (Leishmania donovani [1]): 99.7%
COc1cc(NCCCCCCN2CCCN(C)CC2)c2nccc(C)c2c1 | 12 | 61 | 99.8 | 91.2 | 99.4 |  | Suppression (Leishmania donovani [1]): 98.6%
COc1cc(NCCCCCCN2CC(C)NC(C)C2)c2nccc(C)c2c1 (centres undefined) | 72 | 97.9 | 100 | 99.8 | 100 | Toxic | Suppression (Leishmania donovani [7]): 1.3%
CCN(CC)CCCCCCNc1cc(OC)cc2c(C)cc(C)nc12.Cl | 32 |  |  |  |  |  | 
CCC(C)NCCCCCCNc1cc(OC)cc2c(C)cc(C)nc12.Cl (centres undefined) | 28 |  |  |  |  |  | 
COc1cc(NCCCCCCN2CCS(=O)(=O)CC2)c2nccc(C)c2c1 | 0.5 |  | 35 |  | 67.6 |  | Suppression (Leishmania donovani [1]): 100%
COc1cc(NCCCCCCN2CCN(c3ccccn3)CC2)c2nccc(C)c2c1 | 5 | 18.9 | 95.9 | 24.4 | 97.8 |  | Suppression (Leishmania donovani [1]): 97.5%
CCS(=O)(=O)CCN1CCN(CCCCCCNc2cc(OC)cc3c(C)ccnc23)CC1 | 19 | 21.1 | 99.7 | 99.6 | 99.5 |  | Suppression (Leishmania donovani [1]): 99.9%
CC/N=C(\S)N1CCN(CCCCCCNc2cc(OC)cc3c(C)ccnc23)CC1.Cl | 2 |  |  |  |  |  | 
CCN(CC)CCCCCCNc1cc(OC)c(Oc2cccc(C(F)(F)F)c2)c2c(C)ccnc12 |  |  | 99.6 |  | 100 | Toxic | 
COc1cc(NCCCCCCN2CCN(CCOC(c3ccccc3)c3ccccc3)CC2)c2nccc(C)c2c1.Cl | 5 |  | 83.5 |  | 99.5 |  | Suppression (Leishmania donovani [1]): 100%
CCCCCCCCCCCCN1CCN(CCCCCCNc2cc(OC)cc3c(C)ccnc23)CC1 |  |  |  |  |  |  | Suppression (Leishmania donovani [9]): inactive
CCS(=O)(=O)N1CCN(CCCCCCNc2cc(OC)cc3c(C)ccnc23)CC1 | 4 |  | 94.8 |  | 99.8 |  | Suppression (Leishmania donovani [1]): 99.9%
COc1cc(NCCCCCCN2CC(C)OC(C)C2)c2nccc(C)c2c1.Cl (centres undefined) | 24 | 61 | 99.1 | 98.7 | 99.1 | Toxic | 
COc1cc(NCCCCCCN2CCN(CCO)CC2)c2nccc(C)c2c1.Cl | 104 | 85.8 | 100 | 97 | 100 |  | 
CCN(CC)C(=O)N1CCN(CCCCCCNc2cc(OC)cc3c(C)ccnc23)CC1.Cl | 8 |  | 98.8 | 72.2 | 98.6 | Toxic | 
CCNC(=O)N1CCN(CCCCCCNc2cc(OC)cc3c(C)ccnc23)CC1.Cl | 9 | 35.9 | 99.2 | 84.1 | 100 | Toxic | 
CCN(CC)CC(O)CN1CCN(CCCCCCNc2cc(OC)cc3c(C)ccnc23)CC1.Cl (centres undefined) | 6 |  | 99.7 | 32.6 | 99.9 | Toxic | 
COc1cc(NCCCCCCN2CCN(CCC(C)C)CC2C)c2nccc(C)c2c1.Cl (centres undefined) | 72 | 96.6 | 98.9 | 100 | 99.8 | Toxic | Suppression (Leishmania donovani [7]): 57.3%
CCOC(=O)N1CCN(CCCCCCNc2cc(OC)cc3c(C)ccnc23)CC1 | 33 | 23.9 | 99.9 | 99.1 | 99.9 |  | Suppression (Leishmania donovani [1]): 99.5%
COc1cc(NCCCCCCN2CCN(C(=O)OCc3ccccc3)CC2)c2nccc(C)c2c1.Cl | 2.3 |  | 54.6 |  | 98 | Toxic | 

Molecule | G index (Leishmania donovani [2]) | Suppression (Leishmania donovani [3]) [%] | Suppression (Leishmania donovani [4]) [%] | Suppression (Leishmania donovani [5]) [%] | Suppression (Leishmania donovani [6]) [%] | Suppression (Leishmania donovani [8]) | other results
COc1cc(NCCCCCCN2CCSCC2)c2nccc(C)c2c1.Cl | 6.4 | 27.61 | 99.8 | 59.9 | 100 | Toxic | 
COc1cc(NCCCCCCN2CC[S+]([O-])CC2)c2nccc(C)c2c1.Cl | 3 |  | 84.8 |  | 92.8 | Toxic | 
MEGLUMINE ANTIMONATE | 1 |  | 42 |  |  |  | NA (Leishmania donovani [10]): inactive; Suppression (Leishmania donovani [11]): 91.3%
COc1cc(NCCCCCCN2C[C@@H](C)S[C@@H](C)C2)c2nccc(C)c2c1 | 1.5 |  | 81.1 |  | 93.7 | Toxic | 
COc1cc(NCCCCCCN2CCNc3ccccc32)c2nccc(C)c2c1 |  |  |  |  |  |  | Suppression (Leishmania donovani [9]): inactive
CCN(CC)CCCCCCNc1cc(OC)cc2c(C)ccnc12 [SITAMAQUINE] | 474 | 100 | 100 |  | 100 | Toxic | Suppression (Leishmania donovani [12]): 83.7%; Suppression (Leishmania donovani [7]): 99.6%
COc1cc(NCCCCCCN2CCN(CCCO)CC2)c2nccc(C)c2c1 | 38 |  | 96.3 |  | 97.8 | Toxic | 
COc1cc(NCCCCCCN2CCN(CCCCCCNc3cc(OC)cc4c(C)ccnc34)CC2)c2nccc(C)c2c1 |  |  |  |  |  |  | Suppression (Leishmania donovani [9]): inactive
COc1cc(NCCCCCCNC(C)C)c2nc(C)cc(C)c2c1.Cl | 42 |  |  |  |  |  | 
COc1cc(NCCCCCCN2CCN(C3CCCCC3)CC2)c2nccc(C)c2c1 |  |  |  |  |  |  | Suppression (Leishmania donovani [9]): inactive
COc1cc(NCCCCCCN2CCN(CCCN(C)C)CC2)c2nccc(C)c2c1.Cl | 2 |  | 65.8 |  | 99.7 | Toxic | 
COc1cc(NCCCCCCN2CCN(CC(C)O)CC2)c2nccc(C)c2c1.Cl (centres undefined) | 143 | 99.8 | 99.1 | 99.4 | 99.7 | Toxic | Suppression (Leishmania donovani [12]): 35%; Suppression (Leishmania donovani [7]): 75.7%
COc1cc(NCCCCCCN2CCN(S(=O)(=O)c3ccccc3)c3ccccc32)c2nccc(C)c2c1 |  |  |  |  |  |  | Suppression (Leishmania donovani [9]): inactive
CCC(CC)C(=O)N1CCN(CCCCCCNc2cc(OC)cc3c(C)ccnc23)CC1.Cl | 2.6 |  | 56.6 |  | 99.3 |  | Suppression (Leishmania donovani [1]): 98.6%
CCCN(CCC)C(=O)N1CCN(CCCCCCNc2cc(OC)cc3c(C)ccnc23)CC1.Cl | 6 |  | 89.7 |  | 99.4 |  | Suppression (Leishmania donovani [1]): 100%
COc1cc(NCCCCCCNC(C)C)c2nccc(C)c2c1Oc1cccc(C(F)(F)F)c1 |  |  | 98.6 |  |  | Toxic | 
COc1cc(NCCCCCCN2CCN(C(c3ccccc3)c3ccc(Cl)cc3)CC2)c2nccc(C)c2c1.Cl.Cl (centres undefined) | 23 | 70 | 99.4 | 100 | 96.8 | Toxic | 
COc1cc(NCCCCCCN2CCN(C(=O)N3CCCC3)CC2)c2nccc(C)c2c1.Cl | 2.3 | 4.6 | 100 | 98.8 | 99.8 |  | Suppression (Leishmania donovani [1]): 100%
COc1cc(NCCCCCCN2CCN(CCO)CC2)c2nccc(C)c2c1Oc1cccc(C(F)(F)F)c1.Cl |  |  | 98 |  | 99.1 | Toxic | 
COc1cc(NCCCCCCN2CCN(CC(O)CO)CC2)c2nccc(C)c2c1.Cl (centres undefined) | 57 | 98.5 | 100 | 99.98 | 99.9 | Toxic | Suppression (Leishmania donovani [7]): 25.8%
COc1cc(NCCCCCCN2C[C@H](C)S[C@@H](C)C2)c2nccc(C)c2c1 | 0.4 |  | 21.4 |  | 65 |  | Suppression (Leishmania donovani [1]): 98.2%
COc1cc(NCCCCCCN2CCN(C(=O)N(c3ccccc3)c3ccccc3)CC2)c2nccc(C)c2c1 |  |  |  |  |  |  | Suppression (Leishmania donovani [9]): inactive
